# From patent US8816151B2, “Stat5b transgenic mice and methods of use thereof” (Georgia Health Sciences University Research Institute, Inc., priority 2012, dated 2014)
# Key:
# [1] = system: phosphorylated STAT5; experiment: STAT5 phosphorylation (p-STAT5) by Western blotting and FACS in treated NOD.Stat5bTg mice; format: in vivo, mouse; settings: for p-STAT5 expression in thymocytes: NOD.Stat5bTg mice, treatment for 2 weeks, Western analysis and FACS; for STAT5 activation (pSTAT5) in peripheral blood CD8+ T cells: 10-week old NOD.Stat5bTg mice treated for 2 weeks, FACS
# Procedure: (§1) AG490 (30 mg/kg/day) and STAT5 inhibitor CNH (40 mg/kg/day) purchased from Calbiochem (La Jolla, Calif.) were injected intraperitoneally into F1 and NOD.Stat5b transgenic lines. Xanthohumol and apigenin (>98% purity by HPLC) purchased from Sigma (St. Louis, Mo.) were used in the chemoprevention experiments. Xanthohumol (100 mg/kg/day) and Apigenin (200 mg/kg/day) were injected alone or in combination intraperitoneally into NOD.Stat5b^Tg mice.
# (§2) Single-cell suspensions from thymus, spleen, lymph nodes and hollow fibers were stained and analyzed using a fluorescence-activated cell sorting (FACS) flow cytometer (BD Biosciences) with CELLQuest 3.3 software (Becton Dickinson, San Jose, Calif.). All antibodies were purchased from BD PharMingen (San Diego, Calif.) except anti-CD150-PE from Biolegend (San Diego, Calif.). For intracellular staining, cells were fixed and permeablized using Cytofix/Cytoperm solution (BD PharMingen), followed by P-Stat5 (pY694)-APC staining.
# Whole cell extracts were prepared from thymus or spleens using RIPA lysis buffer (Santa Cruz) supplemented with protease inhibitors. Western blot analysis was carried out as reported (29) by probing the blots with rabbit anti-phospho-Stat5 (Tyr694), rabbit anti-Stat5 or mouse anti-β-actin (Santa Cruz biotechnology), washed, and incubated with a horseradish peroxidase-conjugated anti-rabbit or anti-mouse antibody (Santa Cruz biotechnology). Immunopositive bands were photographed (Versadoc; Bio-Rad) after blots were developed with an enhanced chemiluminescent substrate (Pierce Chemical Co).
# [2] = system: Lymphoma cells from NOD.Stat5bTg mice; experiment: In vivo hollow fiber assay, lymphoma cells from NOD.Stat5bTg mice; design: species or system mouse; settings: lymphoma cells from NOD.Stat5bTg mice in hollow fibers in nude mice, 4 days of daily treatment
# From the text: Cellmax implant membranes were purchased from Spectrum Laboratories Inc. (Rancho Dominguez, Calif.). Lymphoma cells from NOD.Stat5b^Tg mice were harvested, suspended in cold phosphate buffered saline (PBS) and introduced into a 15 cm length of hollow fiber. The fiber was heat-sealed at 20 mm intervals, and each segment was separated using a pair of scissors. Intraperitoneal implantation in methoxyflurane anesthetized 6 week-old nude mice were accomplished via a dorsal incision which allowed passage of the hollow fiber into abdomen. The abdominal wall is closed using skin staples. After 3 days of transplantation, mice with implants were treated daily with either AG490 (30 mg/kg/day) or CNH (40 mg/kg/day). Single cell suspensions were obtained after 4 days of treatment by cutting off the sealed ends of the fibers. Cells were then washed twice with PBS and further processed for flow cytometry.
# as §2, with “For intracellular staining, cells were fixed and permeablized using Cytofix/Cytoperm solution (BD PharMingen), followed by P-Stat5 (pY694)-APC staining.” left out
# [3] = system: CD8+ lymphoma cells derived from F1.Stat5bTg mice; experiment: In vivo hollow fiber assay, lymphoma cells from F1.Stat5bTg mice; design: species or system mouse; settings: hollow fiber assay (data not shown)
# [4] = system: Ckmt2, Dgat2, Myl4, Csrp3, Nppa, Sln and Myh6; experiment: Real-time RT-PCR of genes up-regulated in NOD.Stat5bTg mice; format: in vivo, mouse; settings: normalized with GAPDH, versus vehicle-treated NOD.Stat5bTg mice
# Procedure: as §1
# RNA was isolated from thymus using the miRACLE™ total RNA isolation kit (Jinfiniti Biosciences) or RNeasy® kit (QIAGEN) and used for microarray and real-time RT-PCR analyses. The Illumina's MouseRef-8 v2.0 Expression BeadChip was used for transcriptional analysis. This BeadChip targets approximately 25,600 well-annotated RefSeq transcripts, over 19,100 unique genes, and enables the interrogation of eight samples in parallel. Probe preparation and hybridization were carried out according to Manufacture's recommendation. The microarray data are MIAME compliant and have been deposited in NCBI Gene Expression Omnibus and are accessible through GEO Series accession number GSE31526.
# Real-time PCR was carried out in 96-well PCR plates using the ABI Prism 7900HT real-time PCR instrument (Applied Biosystems, Roche). […] The fluorescent signal was measured at the end of the annealing/elongation step in each cycle.
# [5] = system: CD150; experiment: CD150 expression by FACS in treated NOD.Stat5bTg mice; format: in vivo, mouse; settings: for CD150 expression on CD8+ thymocytes: NOD.Stat5bTg mice, treatment for 2 weeks, intraperitoneal; for CD150 expression in peripheral blood CD8+ T cells: 10-week old NOD.Stat5bTg mice treated for 2 weeks
# Procedure: as §1, §2
# [6] = system: CD8+ thymocytes; experiment: Number of CD8+ thymocytes in treated NOD.Stat5bTg mice; format: in vivo, mouse; settings: treatment for 2 weeks
# Procedure: AG490 (30 mg/kg/day) and STAT5 inhibitor CNH (40 mg/kg/day) purchased from Calbiochem (La Jolla, Calif.) were injected intraperitoneally into F1 and NOD.Stat5b transgenic lines. Xanthohumol and apigenin (>98% purity by HPLC) purchased from Sigma (St. Louis, Mo.) were used in the chemoprevention experiments. Xanthohumol (100 mg/kg/day) and Apigenin (200 mg/kg/day) were injected alone or in combination intraperitoneally into NOD.Stat5b^Tg mice. Single-cell suspensions from thymus, spleen, lymph nodes and hollow fibers were stained and analyzed using a fluorescence-activated cell sorting (FACS) flow cytometer (BD Biosciences) with CELLQuest 3.3 software (Becton Dickinson, San Jose, Calif.). All antibodies were purchased from BD PharMingen (San Diego, Calif.) except anti-CD150-PE from Biolegend (San Diego, Calif.). For intracellular staining, cells were fixed and permeablized using Cytofix/Cytoperm solution (BD PharMingen), followed by P-Stat5 (pY694)-APC staining.
# [7] = system: lymphoma in NOD.Stat5bTg mice; experiment: Lymphomagenesis in NOD.Stat5bTg mice; format: in vivo, mouse; settings: 5 week-old NOD.Stat5bTg mice, three cycles of 3-week on and 3-week off
# From the text: In several experiments, mice were monitored for tumors through physical examination. Mice showing sufficient signs of pain and suffering including thymic and cervical lymphoid enlargement were euthanized for a complete necropsy. Final diagnosis of disease was established by clinical, pathologic and FACS analysis. Images of H&E staining were visualized with an Axiophot I microscope (Carl Zeiss) equipped with a Plan Neofluar 40X objective (FIG. 1c). Images were captured with an Axiocam color CDD camera, and treated on a computer with Axiovision software (Carl Zeiss).
# as §1
# Since AG490 and STAT5b inhibitor CNH can inhibit STAT5 function and CD150 expression, they could delay lymphomagenesis. […] STAT5 inhibitors are potentially very effective in treating cancers with fewer unpleasant side effects. To test this possibility, CNH (40 mg/kg/day) was used to treat 5 week-old NOD.Stat5^Tg mice with three cycles of 3-week on and 3-week off.
Structure (SMILES),p-STAT5 expression in thymocytes [1],apoptosis of lymphoma cells (Annexin V) [2],survival of CD8+ lymphoma cells [3],"expression of genes up-regulated in NOD.Stat5bTg mice (Ckmt2, Dgat2, Myl4, Csrp3, Nppa, Sln and Myh6) in thymocytes [4]",CD150 expression on CD8+ thymocytes [5],number of CD8+ thymocytes [6],STAT5 activation (pSTAT5) in peripheral blood CD8+ T cells [1],CD150 expression in peripheral blood CD8+ T cells [5],age before which treated mice were free of lymphomas [7],percentage of treated mice that developed lymphoma by 30 weeks of age [7]
N#C/C(=C/c1ccc(O)c(O)c1)C(=O)NCc1ccccc1 [AG490],dramatic decrease,significantly increased,did not alter,did not significantly down-regulate,inhibited,greatly decreased,,,,
COc1cc(O)c(CC=C(C)C)c(O)c1C(=O)/C=C/c1ccc(O)cc1 [Xanthohumol],,,,,,,significantly inhibit,significantly inhibit,,
"O=C(NN=Cc1coc2ccccc2c1=O)c1cccnc1 [CNH, chromone-based nicotinyl hydrazone]",did not decrease,significantly increased,did not alter,did not significantly down-regulate,significantly decreased,significantly decreased,,,≥ 27 weeks,17%
O=c1cc(-c2ccc(O)cc2)oc2cc(O)cc(O)c12 [Apigenin],,,,,,,significantly inhibit,significantly inhibit,,
